In PubChem BioAssay AID1845213 (Molecular Pharmacology Branch, DTP, NCI, 2023):
Activity calls are given as the source filed them. The calls were made as follows: active = viability on the fitted dose curve at most 10% of control; inactive = the rest.

Test system: NCI-H841 complex tumor spheroid viability
Experiment: Anticancer human tumor NCI-H841 cell line growth inhibition;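 as to IC50: spheroids exposed to compounds for 7 days before readout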;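 as to viability, T/C: spheroids exposed to compounds for 7 days before readout; 100% = DMSO vehicle control wells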
Details: for IC50: curve of first compound; for viability, T/C: stronger effect = lower value
Outline: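 Single agents and combinations were tested on spheroids built from tumor cells plus HUVEC and hMSC, at half-log dilutions starting at or near clinical Cmax, else 10 microM; final DMSO 0.25% (v/v).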

[1] = second compound 30 pM, first compound 0.0316 µM
[2] = second compound 30 pM, first compound 0.1 µM
[3] = second compound 30 pM, first compound 0.316 µM
[4] = second compound 30 pM, first compound 1 µM
[5] = second compound 30 pM, first compound 3.16 µM
[6] = second compound 30 pM, first compound 10 µM
[7] = second compound 94.9 pM, first compound 0.0316 µM
[8] = second compound 94.9 pM, first compound 0.1 µM
[9] = second compound 94.9 pM, first compound 0.316 µM
[10] = second compound 94.9 pM, first compound 1 µM
[11] = second compound 94.9 pM, first compound 3.16 µM
[12] = second compound 94.9 pM, first compound 10 µM
[13] = second compound 0.0003 µM, first compound 0.0316 µM
[14] = second compound 0.0003 µM, first compound 0.1 µM
[15] = second compound 0.0003 µM, first compound 0.316 µM
[16] = second compound 0.0003 µM, first compound 1 µM
[17] = second compound 0.0003 µM, first compound 3.16 µM
[18] = second compound 0.0003 µM, first compound 10 µM
[19] = second compound 0.000949 µM, first compound 0.0316 µM
[20] = second compound 0.000949 µM, first compound 0.1 µM
[21] = second compound 0.000949 µM, first compound 0.316 µM
[22] = second compound 0.000949 µM, first compound 1 µM
[23] = second compound 0.000949 µM, first compound 3.16 µM
[24] = second compound 0.000949 µM, first compound 10 µM
[25] = second compound 0.003 µM, first compound 0.0316 µM
[26] = second compound 0.003 µM, first compound 0.1 µM
[27] = second compound 0.003 µM, first compound 0.316 µM
[28] = second compound 0.003 µM, first compound 1 µM
[29] = second compound 0.003 µM, first compound 3.16 µM
[30] = second compound 0.003 µM, first compound 10 µM
[31] = second compound 1 µM, first compound 0.00949 µM
[32] = second compound 1 µM, first compound 0.03 µM
[33] = second compound 1 µM, first compound 0.0949 µM
[34] = second compound 1 µM, first compound 0.3 µM
[35] = second compound 1 µM, first compound 0.949 µM
[36] = second compound 1 µM, first compound 3 µM
[37] = second compound 3.16 µM, first compound 0.00949 µM
[38] = second compound 3.16 µM, first compound 0.03 µM
[39] = second compound 3.16 µM, first compound 0.0949 µM
[40] = second compound 3.16 µM, first compound 0.3 µM
[41] = second compound 3.16 µM, first compound 0.949 µM
[42] = second compound 3.16 µM, first compound 3 µM
[43] = second compound 10 µM, first compound 0.00949 µM
[44] = second compound 10 µM, first compound 0.03 µM
[45] = second compound 10 µM, first compound 0.0949 µM
[46] = second compound 10 µM, first compound 0.3 µM
[47] = second compound 10 µM, first compound 0.949 µM
[48] = second compound 10 µM, first compound 3 µM
[49] = second compound 31.6 µM, first compound 0.00949 µM
[50] = second compound 31.6 µM, first compound 0.03 µM
[51] = second compound 31.6 µM, first compound 0.0949 µM
[52] = second compound 31.6 µM, first compound 0.3 µM
[53] = second compound 31.6 µM, first compound 0.949 µM
[54] = second compound 31.6 µM, first compound 3 µM
[55] = second compound 100 µM, first compound 0.00949 µM
[56] = second compound 100 µM, first compound 0.03 µM
[57] = second compound 100 µM, first compound 0.0949 µM
[58] = second compound 100 µM, first compound 0.3 µM
[59] = second compound 100 µM, first compound 0.949 µM
[60] = second compound 100 µM, first compound 3 µM

CC(C)n1c(=O)n(C)c2cnc3cc(F)c(-c4ccc(OCCCN5CCCCC5)nc4)cc3c21 + COc1cc2c(cc1O)CCNC21CSC2c3c(OC(C)=O)c(C)c4c(c3C(COC1=O)N1C(O)C3Cc5cc(C)c(OC)c(O)c5C(C21)N3C)OCO4
IC50 (second compound 30 pM): > 10000 nM | IC50 (second compound 94.9 pM): < 31.6 nM | IC50 (second compound 0.0003 µM): < 31.6 nM | IC50 (second compound 0.000949 µM): < 31.6 nM | IC50 (second compound 0.003 µM): < 31.6 nM | viability, T/C [1]: 83.8% | viability, T/C [2]: 79.7% | viability, T/C [3]: 78.9% | viability, T/C [4]: 79.1% | viability, T/C [5]: 79.1% | viability, T/C [6]: 69.5% | viability, T/C [7]: 40.4% | viability, T/C [8]: 34.5% | viability, T/C [9]: 32% | viability, T/C [10]: 25.9% | viability, T/C [11]: 26.2% | viability, T/C [12]: 18% | viability, T/C [13]: 3.09% | viability, T/C [14]: 3.02% | viability, T/C [15]: 2.66% | viability, T/C [16]: 2.5% | viability, T/C [17]: 2.79% | viability, T/C [18]: 2% | viability, T/C [19]: 2.82% | viability, T/C [20]: 3.14% | viability, T/C [21]: 3.38% | viability, T/C [22]: 2.32% | viability, T/C [23]: 2.06% | viability, T/C [24]: 1.47% | viability, T/C [25]: 0.11% | viability, T/C [26]: 0.12% | viability, T/C [27]: 0.11% | viability, T/C [28]: 0.1% | viability, T/C [29]: 0.1% | viability, T/C [30]: 0.15%

COc1ccc([C@@H](O)c2cc(-c3ncnc4cc(N5CCOCC5)ccc34)c(F)cc2Cl)nn1 + COc1cc2c(cc1O)CCNC21CSC2c3c(OC(C)=O)c(C)c4c(c3C(COC1=O)N1C(O)C3Cc5cc(C)c(OC)c(O)c5C(C21)N3C)OCO4
IC50 (second compound 30 pM): 2950 nM | IC50 (second compound 94.9 pM): 1040 nM | IC50 (second compound 0.0003 µM): < 31.6 nM | IC50 (second compound 0.000949 µM): < 31.6 nM | IC50 (second compound 0.003 µM): < 31.6 nM | viability, T/C [1]: 102% | viability, T/C [2]: 99.6% | viability, T/C [3]: 96% | viability, T/C [4]: 86.7% | viability, T/C [5]: 47.5% | viability, T/C [6]: 4.01% | viability, T/C [7]: 99.4% | viability, T/C [8]: 94.5% | viability, T/C [9]: 86.4% | viability, T/C [10]: 50.3% | viability, T/C [11]: 16.4% | viability, T/C [12]: 1.62% | viability, T/C [13]: 31.4% | viability, T/C [14]: 34.4% | viability, T/C [15]: 16.9% | viability, T/C [16]: 4.22% | viability, T/C [17]: 0.62% | viability, T/C [18]: 0.12% | viability, T/C [19]: 2.69% | viability, T/C [20]: 2.87% | viability, T/C [21]: 1.76% | viability, T/C [22]: 0.09% | viability, T/C [23]: 0.02% | viability, T/C [24]: 0.14% | viability, T/C [25]: 0.13% | viability, T/C [26]: 0.12% | viability, T/C [27]: 0.14% | viability, T/C [28]: 0.16% | viability, T/C [29]: 0.19% | viability, T/C [30]: 0.27%

CNCc1ccc(-c2cc(-c3nc(-c4ccc(S(=O)(=O)C(C)C)cc4)cnc3N)on2)cc1 + Cn1nnc2c(C(N)=O)ncn2c1=O
IC50 (second compound 1 µM): 63 nM | IC50 (second compound 3.16 µM): 63.5 nM | IC50 (second compound 10 µM): 177 nM | IC50 (second compound 31.6 µM): 88 nM | IC50 (second compound 100 µM): 49.8 nM | viability, T/C [31]: 96.3% | viability, T/C [32]: 94.5% | viability, T/C [33]: 25.5% | viability, T/C [34]: 33.9% | viability, T/C [35]: 4.57% | viability, T/C [36]: 1.05% | viability, T/C [37]: 97.7% | viability, T/C [38]: 74.5% | viability, T/C [39]: 33% | viability, T/C [40]: 21.8% | viability, T/C [41]: 3.41% | viability, T/C [42]: 0.87% | viability, T/C [43]: 101% | viability, T/C [44]: 99.2% | viability, T/C [45]: 89.8% | viability, T/C [46]: 16.2% | viability, T/C [47]: 2.29% | viability, T/C [48]: 5.12% | viability, T/C [49]: 97.5% | viability, T/C [50]: 96.3% | viability, T/C [51]: 45% | viability, T/C [52]: 17.2% | viability, T/C [53]: 1.91% | viability, T/C [54]: 7.45% | viability, T/C [55]: 92.9% | viability, T/C [56]: 48% | viability, T/C [57]: 58.3% | viability, T/C [58]: 5.09% | viability, T/C [59]: 8.18% | viability, T/C [60]: 0.32%

Cn1ncnc1[C@H]1c2n[nH]c(=O)c3cc(F)cc(c23)N[C@@H]1c1ccc(F)cc1 + Cn1nnc2c(C(N)=O)ncn2c1=O
IC50 (second compound 1 µM): 369 nM | IC50 (second compound 3.16 µM): 18.6 nM | IC50 (second compound 10 µM): < 9.49 nM | IC50 (second compound 31.6 µM): < 9.49 nM | IC50 (second compound 100 µM): < 9.49 nM | viability, T/C [31]: 89.2% | viability, T/C [32]: 86.4% | viability, T/C [33]: 78.1% | viability, T/C [34]: 60.3% | viability, T/C [35]: 4.54% | viability, T/C [36]: 2.08% | viability, T/C [37]: 90.5% | viability, T/C [38]: 9.92% | viability, T/C [39]: 42.8% | viability, T/C [40]: 42.2% | viability, T/C [41]: 6.61% | viability, T/C [42]: 5.73% | viability, T/C [43]: 25.7% | viability, T/C [44]: 54.8% | viability, T/C [45]: 9.14% | viability, T/C [46]: 11.2% | viability, T/C [47]: 6.05% | viability, T/C [48]: 2.46% | viability, T/C [49]: 13.9% | viability, T/C [50]: 6.84% | viability, T/C [51]: 3.57% | viability, T/C [52]: 2.41% | viability, T/C [53]: 2.88% | viability, T/C [54]: 3.21% | viability, T/C [55]: 3.08% | viability, T/C [56]: 2.93% | viability, T/C [57]: 3.16% | viability, T/C [58]: 3.31% | viability, T/C [59]: 8.92% | viability, T/C [60]: 3.58%

O=C(c1cc(Cc2n[nH]c(=O)c3ccccc23)ccc1F)N1CCN(C(=O)C2CC2)CC1 + Cn1nnc2c(C(N)=O)ncn2c1=O
IC50 (second compound 1 µM): 5820 nM | IC50 (second compound 3.16 µM): 4960 nM | IC50 (second compound 10 µM): 131 nM | IC50 (second compound 31.6 µM): 490 nM | IC50 (second compound 100 µM): < 94.9 nM | viability, T/C [33]: 96.6% | viability, T/C [34]: 99.7% | viability, T/C [35]: 87.6% | outcome [36]: inactive | viability, T/C (second compound 1 µM, first compound 9.49 µM): 36.1% | viability, T/C (second compound 1 µM, first compound 30 µM): 7.71% | viability, T/C [39]: 104% | viability, T/C [40]: 99.6% | viability, T/C [41]: 95.3% | viability, T/C [42]: 77.5% | viability, T/C (second compound 3.16 µM, first compound 9.49 µM): 14.7% | viability, T/C (second compound 3.16 µM, first compound 30 µM): 7.81% | outcome [45]: inactive | outcome [46]: inactive | viability, T/C [47]: 45.5% | viability, T/C [48]: 9.01% | viability, T/C (second compound 10 µM, first compound 9.49 µM): 6.29% | viability, T/C (second compound 10 µM, first compound 30 µM): 3.58% | viability, T/C [51]: 90.2% | viability, T/C [52]: 83.1% | viability, T/C [53]: 4.8% | viability, T/C [54]: 9.51% | viability, T/C (second compound 31.6 µM, first compound 9.49 µM): 3.15% | viability, T/C (second compound 31.6 µM, first compound 30 µM): 4.15% | viability, T/C [57]: 17.8% | viability, T/C [58]: 15% | viability, T/C [59]: 4.23% | viability, T/C [60]: 5.1% | viability, T/C (second compound 100 µM, first compound 9.49 µM): 3.82% | viability, T/C (second compound 100 µM, first compound 30 µM): 5.19%
